For one test, the target named is β-cardiac myosin (Sus scrofa, UniProt P79293). Nature of the test: Transient kinetics (stopped-flow) of the ATPase cycle. The test is classed as biochemical, Porcine. Set-up: β-Cardiac myosin-2 (S1, full-length); from tissue; host or cells: porcine cardiac muscle. An excerpt: To gain a better understanding of its mechanism of action, we examined the effect of EMD 57033-binding on the kinetic activity of the myosin motor. […] Fast mixing of excess ATP with β-cardiac myosin results in an increase of the protein’s intrinsic tryptophan fluorescence. The kinetic model predicts the double exponential ‘behavior’ of the observed transients to be associated with two discrete processes (Figure 3C). The fast process corresponds to the binding of ATP to the active site. The rate of the slow process saturates at ATP concentrations above 100 µM and can be attributed to the ATP hydrolysis step ([Deacon et al., 2012]). […] Phosphate release is the rate-limiting step of the β-cardiac myosin actin-activated ATPase cycle. It can be monitored by the fluorescence increase that is associated with the much faster binding of phosphate to the A197C mutant of Escherichia coli phosphate binding protein, labeled at Cys197 with the thiol reactive coumarin dye MDCC ([Brune et al., 1994]) (Figure 3F). […] The resulting values for k+4 indicate a 1.7-fold increase in the presence of the small compound.
Stopped-flow experiments were performed using PiStar (Applied Photophysics, Leatherhead, UK) and Hi-Tech SF61 (TgK Scientific Limited, Bradford on Avon, UK) spectrophotometers at 20°C as described previously ([Taft et al., 2008]). Mant-nucleotides (Jena Bioscience, Germany) were excited at 365 nm and detected after passing through a KV 389 nm cut-off filter. Tryptophane fluorescence was excited at 297 nm and detected using a WG 320 nm cut-off filter. Long-time experiments were carried out using a shutter to avoid photo-bleaching. […] Phosphate release was measured using MDCC-PBP (N-[2-(1-maleimidyl)ethyl]-7-(diethylamino)coumarin-3-carboxamide fused to phosphate binding protein; obtained from Life Technologies, Carlsbad, CA) as described previously ([Brune et al., 1994]). Coumarin fluorescence was excited at 430 nm and detected using 455 nm cut-off-filter.

For test [1], the target named is T1, Dd myosin-5b motor domain (Dictyostelium discoideum, UniProt P54697).
T1 construct: Dd myosin-5b motor domain; His tag; made in house; host or cells: Dictyostelium discoideum AX3-ORF+ cells
T1 sequence (P54697 1-821 limits assumed): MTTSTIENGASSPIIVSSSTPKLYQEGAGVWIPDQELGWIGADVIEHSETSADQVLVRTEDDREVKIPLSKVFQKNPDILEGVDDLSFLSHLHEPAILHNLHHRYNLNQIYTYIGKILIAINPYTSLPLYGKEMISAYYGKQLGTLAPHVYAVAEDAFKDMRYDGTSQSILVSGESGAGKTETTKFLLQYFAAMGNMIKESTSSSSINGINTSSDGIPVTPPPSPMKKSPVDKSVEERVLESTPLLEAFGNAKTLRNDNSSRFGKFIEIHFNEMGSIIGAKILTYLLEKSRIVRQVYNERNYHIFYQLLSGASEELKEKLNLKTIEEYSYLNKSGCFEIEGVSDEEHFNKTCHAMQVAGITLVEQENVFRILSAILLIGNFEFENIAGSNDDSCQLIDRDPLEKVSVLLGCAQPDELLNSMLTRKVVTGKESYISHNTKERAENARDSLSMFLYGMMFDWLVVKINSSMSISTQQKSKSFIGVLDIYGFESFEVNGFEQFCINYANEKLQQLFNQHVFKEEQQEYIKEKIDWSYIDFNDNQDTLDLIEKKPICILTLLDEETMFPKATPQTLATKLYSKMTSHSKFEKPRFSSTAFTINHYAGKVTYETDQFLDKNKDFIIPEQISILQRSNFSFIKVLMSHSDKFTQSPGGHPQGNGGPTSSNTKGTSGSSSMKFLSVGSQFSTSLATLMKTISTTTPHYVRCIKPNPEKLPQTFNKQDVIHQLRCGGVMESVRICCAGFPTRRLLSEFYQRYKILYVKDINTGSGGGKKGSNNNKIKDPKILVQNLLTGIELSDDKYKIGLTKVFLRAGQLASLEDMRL
Kind of test: Steady-state basal and actin-activated Mg2+-ATPase (NADH-coupled assay). The test is classed as biochemical. On the procedure:
(§1) Proteolytic fragments were further purified by actin-coprecipitation.
Basal and actin-activated Mg^2+-ATPase activities were measured using the NADH-coupled assay described previously ([Furch et al., 1998]) adapted for higher throughput screens for a temperature controlled plate reader (Multiscan FC, Thermo Scientific, Waltham, MA) at 25°C. EMD 57033 was added to the reaction mixture in the absence of nucleotide and incubated before the reaction was started by the addition of ATP. Control measurements were carried out in the absence of drug, as well as in the presence of according concentrations of the non-binding (−)-enantiomer EMD 57439 to account for possible absorption effects. […] Data points are mean values from 3 to 5 independent experiments. Error bars indicate standard deviations.

A further test relates to dogs with heart failure. Set-up: method as in Senzaki et al., 2000. Conditions: ref Senzaki et al., 2000; cited from earlier work.
A further test concerns the target T2, β-cardiac myosin S1 (Sus scrofa, UniProt P79293).
T2 construct: S1 and HMM fragments were produced by proteolytic digestion of the full-length proteins with 0.05 mg/ml papain; from tissue; host or cells: porcine cardiac muscle
Kind of test: Microscale thermophoresis direct binding. Set-up: species or system Porcine.
From the text: as §1
A general note: MST reads how a fluorescent partner responds to local heating, with and without ligand.

A word on the AC50: it is the concentration giving half of the maximal activity seen. As a reminder, the Kd is the free concentration of one partner at which half of the binding sites on the other are occupied at equilibrium, for simple one-to-one binding.

β-cardiac myosin, sequence (P79293 whole entry): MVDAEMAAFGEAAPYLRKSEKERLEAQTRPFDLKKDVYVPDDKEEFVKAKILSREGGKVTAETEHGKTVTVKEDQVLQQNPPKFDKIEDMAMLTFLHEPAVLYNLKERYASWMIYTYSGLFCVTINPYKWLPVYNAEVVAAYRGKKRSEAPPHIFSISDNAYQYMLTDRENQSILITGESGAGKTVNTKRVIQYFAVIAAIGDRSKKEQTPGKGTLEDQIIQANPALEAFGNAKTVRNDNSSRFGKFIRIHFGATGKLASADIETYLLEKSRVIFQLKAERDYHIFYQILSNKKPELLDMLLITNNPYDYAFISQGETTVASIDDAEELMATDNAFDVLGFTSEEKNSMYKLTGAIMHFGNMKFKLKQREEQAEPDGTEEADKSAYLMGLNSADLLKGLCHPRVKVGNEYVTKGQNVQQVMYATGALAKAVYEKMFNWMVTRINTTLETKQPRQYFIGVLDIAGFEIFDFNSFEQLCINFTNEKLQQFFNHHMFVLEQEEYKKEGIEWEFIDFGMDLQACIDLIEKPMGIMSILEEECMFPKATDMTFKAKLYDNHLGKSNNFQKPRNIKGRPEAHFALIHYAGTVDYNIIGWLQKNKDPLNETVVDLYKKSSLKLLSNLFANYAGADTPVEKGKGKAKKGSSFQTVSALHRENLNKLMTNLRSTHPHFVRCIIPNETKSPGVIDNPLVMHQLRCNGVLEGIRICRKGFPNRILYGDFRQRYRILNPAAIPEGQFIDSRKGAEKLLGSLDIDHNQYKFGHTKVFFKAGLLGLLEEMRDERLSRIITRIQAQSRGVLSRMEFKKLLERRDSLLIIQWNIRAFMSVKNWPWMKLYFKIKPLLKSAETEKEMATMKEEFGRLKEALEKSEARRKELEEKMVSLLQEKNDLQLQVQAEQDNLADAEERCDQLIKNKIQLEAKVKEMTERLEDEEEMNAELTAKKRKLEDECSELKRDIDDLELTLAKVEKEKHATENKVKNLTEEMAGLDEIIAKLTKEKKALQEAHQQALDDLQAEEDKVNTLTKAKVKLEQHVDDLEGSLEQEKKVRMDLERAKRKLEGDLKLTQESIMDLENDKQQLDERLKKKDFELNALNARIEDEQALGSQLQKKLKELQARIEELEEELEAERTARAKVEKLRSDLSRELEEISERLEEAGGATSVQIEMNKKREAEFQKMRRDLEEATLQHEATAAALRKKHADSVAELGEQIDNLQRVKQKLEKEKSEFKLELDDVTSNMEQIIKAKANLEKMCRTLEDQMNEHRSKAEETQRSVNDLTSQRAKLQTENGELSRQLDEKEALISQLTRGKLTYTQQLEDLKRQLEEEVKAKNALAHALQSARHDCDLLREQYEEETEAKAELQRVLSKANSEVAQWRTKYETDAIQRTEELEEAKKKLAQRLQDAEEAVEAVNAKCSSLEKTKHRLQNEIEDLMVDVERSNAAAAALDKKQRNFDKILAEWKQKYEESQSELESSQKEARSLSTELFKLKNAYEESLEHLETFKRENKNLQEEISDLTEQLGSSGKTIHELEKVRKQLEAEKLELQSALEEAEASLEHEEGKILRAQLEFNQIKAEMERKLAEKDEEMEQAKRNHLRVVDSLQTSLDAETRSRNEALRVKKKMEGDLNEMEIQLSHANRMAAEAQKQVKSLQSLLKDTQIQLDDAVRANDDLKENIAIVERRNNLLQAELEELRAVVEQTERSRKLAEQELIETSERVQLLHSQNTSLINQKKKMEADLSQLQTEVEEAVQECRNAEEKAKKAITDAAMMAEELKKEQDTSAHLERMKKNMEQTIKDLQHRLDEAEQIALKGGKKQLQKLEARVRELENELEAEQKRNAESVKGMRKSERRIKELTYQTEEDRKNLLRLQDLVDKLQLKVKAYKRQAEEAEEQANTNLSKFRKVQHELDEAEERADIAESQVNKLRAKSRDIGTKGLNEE
T2 sequence (P79293 1-843 limits assumed): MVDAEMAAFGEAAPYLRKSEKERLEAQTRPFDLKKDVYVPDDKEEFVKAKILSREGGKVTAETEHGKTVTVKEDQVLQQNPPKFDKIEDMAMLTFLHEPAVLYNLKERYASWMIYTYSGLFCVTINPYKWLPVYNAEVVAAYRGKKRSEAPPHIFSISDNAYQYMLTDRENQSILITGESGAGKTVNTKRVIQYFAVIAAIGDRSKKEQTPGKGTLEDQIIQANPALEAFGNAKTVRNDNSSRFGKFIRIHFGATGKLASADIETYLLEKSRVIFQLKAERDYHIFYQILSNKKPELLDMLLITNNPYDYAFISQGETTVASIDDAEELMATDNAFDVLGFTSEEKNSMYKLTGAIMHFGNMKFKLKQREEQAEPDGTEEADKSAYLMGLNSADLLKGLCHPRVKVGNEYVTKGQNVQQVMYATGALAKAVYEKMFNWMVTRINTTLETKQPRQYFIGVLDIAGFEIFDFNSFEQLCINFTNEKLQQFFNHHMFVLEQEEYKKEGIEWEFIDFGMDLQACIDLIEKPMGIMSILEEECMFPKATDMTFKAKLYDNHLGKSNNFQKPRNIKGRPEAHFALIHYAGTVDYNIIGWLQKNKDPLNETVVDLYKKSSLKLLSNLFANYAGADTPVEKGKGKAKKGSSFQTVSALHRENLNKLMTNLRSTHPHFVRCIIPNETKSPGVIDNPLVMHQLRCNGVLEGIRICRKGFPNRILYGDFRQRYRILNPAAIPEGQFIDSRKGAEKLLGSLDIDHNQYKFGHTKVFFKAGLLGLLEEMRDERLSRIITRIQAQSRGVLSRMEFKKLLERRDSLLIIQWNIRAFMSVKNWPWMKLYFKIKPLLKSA

For the compound `COc1ccc(C(=O)N2CCCc3cc(C4=NNC(=O)SC4C)ccc32)cc1OC` (stereo not shown) [EMD 57033], the “Effect on ADP-release step (k−D, k−AD)” value on β-cardiac myosin is on record as “appears unaffected”. For the same compound, the “k+4 (phosphate release)” value on β-cardiac myosin (25 µM EMD 57033, F-Actin 25 µM and 25 µM ATP, MDCC-PBP) amounted to 0.15 ± 0.01 s⁻¹. The “k+2 ∼Change (−fold), increase” value on β-cardiac myosin (25 µM EMD 57033 vs control) amounted to 3.8 fold. In addition, the “k+4 ∼Change (−fold), increase” value on β-cardiac myosin (EMD 57033 vs control) came to 1.7 fold. In addition, the “Net change in the rate of ATP turnover, single-turnover mantATP experiment” value at β-cardiac myosin (actin-activated β-cardiac myosin, 25 µM EMD 57033) was “approximately twofold net increase”. In addition, on β-cardiac myosin (in presence of 25 µM EMD 57033), the “k+2 (conformational change after ATP binding)” value amounted to 174 ± 7 s⁻¹; the “k+3 + k−3 (rate of ATP hydrolysis)” value was determined as 24.5 ± 1.9 s⁻¹; the “k−AD (ADP release, with actin)” value worked out at 26.9 ± 4 s⁻¹; the “k−D (ADP release)” value came to 0.16 ± 0.04 s⁻¹. Besides, in test [1], the concentration at half-maximal activity (AC50) is 35.4 µM, the “Activation potency relative to β-cardiac myosin (weaker)” value was “fivefold” and the “Normalized maximal ATPase activation (basal)” value is 1.4. In addition, the “Normalized maximal ATPase activation (with 30 µM actin)” value in test [1] (30 µM actin) worked out at 1.6. The “Haemodynamic effects in failing heart” value in the test on dogs with heart failure was “potent positive inotropic effects, reduced oxygen cost of contraction, and enhanced diastolic chamber performance”. Moreover, the Binding stoichiometry result on β-cardiac myosin S1 was “one molecule of EMD 57033 per myosin head”. For the same compound, the Kd on β-cardiac myosin S1 (fluorescently labeled β-cardiac myosin S1, 100 nM, fit to Hill equation, read-out: Binding affinity (MST), KD) was determined as 7.3 µM.

The record behind these values is PMC3920478, “Small molecule-mediated refolding and activation of myosin motor function” (eLife, 2014).
